What was measured:
[1] = system: HT29 cell line (colorectal adenocarcinoma from human); format: cell-based; conditions: read-out: IC50 [µM] against HT29
[2] = system: A549 cell line (lung carcinoma from human); format: cell-based; conditions: read-out: IC50 [µM] against A549
[3] = system: EAhy926 cell line (the human umbilical vein, somatic cell hybrid); format: cell-based; conditions: read-out: IC50 [µM] against EA.hy9263
[4] = biological target: hyaluronidase from bovine testes Type I-S (Bos taurus, UniProt Q2YDK3); format: biochemical; conditions: read-out: IC50 (µM) hyaluronidase inhibition
Sequence of hyaluronidase from bovine testes Type I-S (Q2YDK3 36-553 limits assumed): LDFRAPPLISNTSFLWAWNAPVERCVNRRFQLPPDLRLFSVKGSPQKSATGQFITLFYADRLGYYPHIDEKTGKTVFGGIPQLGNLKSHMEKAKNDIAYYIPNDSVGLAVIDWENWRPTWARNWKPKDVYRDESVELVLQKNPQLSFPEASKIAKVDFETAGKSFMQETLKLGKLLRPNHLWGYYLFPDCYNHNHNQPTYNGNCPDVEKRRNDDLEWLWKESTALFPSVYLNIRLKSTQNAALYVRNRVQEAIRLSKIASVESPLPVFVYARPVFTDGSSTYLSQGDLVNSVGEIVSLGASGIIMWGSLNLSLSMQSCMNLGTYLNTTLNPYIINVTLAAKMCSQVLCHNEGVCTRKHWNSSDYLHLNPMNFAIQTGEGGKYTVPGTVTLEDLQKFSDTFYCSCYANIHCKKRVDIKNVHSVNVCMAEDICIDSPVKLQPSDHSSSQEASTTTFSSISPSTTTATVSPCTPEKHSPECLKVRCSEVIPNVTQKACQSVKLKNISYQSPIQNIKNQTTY

Molecule | IC50 [1] [µM] | IC50 [2] [µM] | IC50 [3] [µM] | IC50 [4] [µM]
O=C(NCCNc1c2c(nc3ccccc13)CCCC2)c1ccccc1F [Compound 1] | 68.4 | 106 |  | 
O=C(NCCCNc1c2c(nc3ccccc13)CCCC2)c1ccccc1F [Compound 2] | 50.2 | 148 |  | 
O=C(NCCCNc1c2c(nc3ccccc13)CCCC2)c1cccc(F)c1 [Compound 5] | 44 | 118 |  | 
COc1cc([C@@H]2c3cc4c(cc3[C@@H](O[C@@H]3O[C@@H]5CO[C@@H](C)O[C@H]5[C@H](O)[C@H]3O)[C@H]3COC(=O)[C@H]23)OCO4)cc(OC)c1O [Compound C1, Etoposide] | 654 | 451 | 155 | 
O=c1[nH]cc(F)c(=O)[nH]1 [Compound C2, 5-fluorouracil] | 1630 | > 1800 | > 1800 | 
heparin [Compound C3] |  |  |  | 56.4
